Measured values published in patent US6610883B1, “Compounds having selective activity for retinoid X receptors, and means for modulation of processes mediated by retinoid X receptors” (Ligand Pharmaceuticals, Inc., priority 1992, dated 2003).
Like-named read-outs stand apart in the source and are kept apart here.

How the values were obtained:
Assay type in all cases: cell-based
RXRγ = biological target: T1, RXRγ (Mus musculus, UniProt P28705); test: Co-transfection (cis-trans) assay in CV-1 cells, RXRγ; conditions: for Emax at 10 µM: CV-1, maximal response relative to all-trans-retinoic acid at 10^−5 M, read-out: Efficacy
T1 construct: expressed in transfected cells; host or cells: CV-1 (monkey kidney)
T1 sequence (P28705 1-463): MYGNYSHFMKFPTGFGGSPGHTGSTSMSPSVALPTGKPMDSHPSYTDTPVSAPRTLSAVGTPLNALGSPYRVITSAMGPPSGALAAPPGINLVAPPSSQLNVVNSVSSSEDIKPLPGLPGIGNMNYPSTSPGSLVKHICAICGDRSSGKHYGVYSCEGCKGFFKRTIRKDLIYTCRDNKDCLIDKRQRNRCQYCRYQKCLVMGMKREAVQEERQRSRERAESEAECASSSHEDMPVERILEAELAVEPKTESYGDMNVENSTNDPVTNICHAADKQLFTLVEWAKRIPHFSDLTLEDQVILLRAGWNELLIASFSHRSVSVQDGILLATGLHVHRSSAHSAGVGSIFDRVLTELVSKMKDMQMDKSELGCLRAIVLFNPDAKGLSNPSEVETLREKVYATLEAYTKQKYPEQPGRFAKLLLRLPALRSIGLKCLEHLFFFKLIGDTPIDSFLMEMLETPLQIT
Description: (§1) The co-transfection assay provides a mechanism to evaluate the ability of a compound to modulate the transcription response initiated by an intracellular receptor. […] Berger, et al., J. Steroid Biochem Molec.
(§2) Briefly, the co-transfection assay involves the introduction of two plasmids by transient transfection into a retinoid receptor-negative mammalian cell background. The first plasmid contains a retinoid receptor cDNA and directs constitutive expression of the encoded receptor. The second plasmid contains a cDNA that encodes for a readily quantifiable protein, e.g., firefly luciferase or chloramphenicol acetyl transferase (CAT), under control of a promoter containing a retinoid acid response element, which confers retinoid dependence on the transcription of the reporter. In this co-transfection assay, all retinoid receptors respond to all-trans-retinoic acid in a similar fashion. This assay can be used to accurately measure efficacy and potency of retinoic acid and synthetic retinoids as ligands that interact with the individual retinoid receptor subtypes.
(§3) Accordingly, synthetic retinoid compounds of the current invention were evaluated for their interaction with retinoid receptor subtypes using the co-transfection assay in which CV-1 cells were co-transfected with one of the retinoid receptor subtypes, a reporter construct, and an internal control to allow normalization of the response for transfection efficiency. The following example is illustrative.
(§4) Retinoids: All-tans-retinoic acid (RA) and 13-cis-retinoic acid (13-cis-RA) were obtained from Sigma. […] Retinoids were dissolved in dimethylsulfoxide for use in the transcriptional activation assays.
(§5) Co-transfection Assay In CV-1 Cells: A monkey kidney cell line, CV-1, was used in the cis-trans assay. Cells were transfected with two plasmids. […] The cis-vector contains an easily assayable gene product, in this case the firefly luciferase, coupled to a retinoid-responsive promoter, i.e., an RARE or RXRE. Addition of retinoic acid or an appropriate synthetic retinoid results in the formation of a retinoid-RAR or -RXR complex that activates the expression of luciferase gene, causing light to be emitted from cell extracts. The level of luciferase activity is directly proportional to the effectiveness of the retinoid-receptor complex in activating gene expression. This sensitive and reproducible co-transfection approach permits the identification of retinoids that interact with the different receptor isoforms.
(§6) Cells were cultured in DMEM supplemented with 10% charcoal resin-stripped fetal bovine serum, and experiments were conducted in 96-well plates. […] Cells were transfected for 6 h and then washed to remove the precipitate. The cells were then incubated for 36 h with or without retinoid. After the transfection, all subsequent steps were performed on a Beckman Biomek Automated Workstation. […] All determinations were performed in triplicate in two independent experiments and were normalized for transfection efficiency by using β-galactosidase as the internal control. […] Efficacy values less than 5% are not statistically different than the 0% background.

RARβ = biological target: T2, RARβ (Homo sapiens, UniProt P10826); test: Co-transfection (cis-trans) assay in CV-1 cells, RARβ; set-up: expressed in transfected cells; host or cells: CV-1 (monkey kidney); conditions: for Emax at 10 µM: CV-1, maximal response relative to all-trans-retinoic acid at 10^−5 M, read-out: Efficacy; for EC50: CV-1 cells, luciferase reporter, 36 h, read-out: Potency
T2 sequence (P10826 1-455): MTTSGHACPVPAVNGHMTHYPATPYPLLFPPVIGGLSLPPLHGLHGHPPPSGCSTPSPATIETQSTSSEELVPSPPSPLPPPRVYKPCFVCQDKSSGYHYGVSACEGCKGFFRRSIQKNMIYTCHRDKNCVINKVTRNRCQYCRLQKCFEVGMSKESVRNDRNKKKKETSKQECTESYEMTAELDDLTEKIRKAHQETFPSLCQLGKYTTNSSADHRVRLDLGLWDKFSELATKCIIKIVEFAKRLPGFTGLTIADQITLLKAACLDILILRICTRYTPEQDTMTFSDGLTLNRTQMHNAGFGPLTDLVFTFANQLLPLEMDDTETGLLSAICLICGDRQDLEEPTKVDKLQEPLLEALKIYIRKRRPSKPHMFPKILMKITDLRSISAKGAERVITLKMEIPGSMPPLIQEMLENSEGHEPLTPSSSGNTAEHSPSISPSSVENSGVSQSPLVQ
Description: as §1, §2, §3, §4, §5, §6

RXRα = biological target: T3, RXRα (Homo sapiens, UniProt P19793); test: Co-transfection (cis-trans) assay in CV-1 cells, RXRα; set-up: Emax: dose or concentration left out as unconfirmed; conditions: for Emax at 10 µM: CV-1, maximal response relative to all-trans-retinoic acid at 10^−5 M, read-out: Efficacy
T3 construct: The first plasmid contains a retinoid receptor cDNA and directs constitutive expression of the encoded receptor; expressed in transfected cells; host or cells: CV-1 (monkey kidney)
T3 sequence (P19793 1-462): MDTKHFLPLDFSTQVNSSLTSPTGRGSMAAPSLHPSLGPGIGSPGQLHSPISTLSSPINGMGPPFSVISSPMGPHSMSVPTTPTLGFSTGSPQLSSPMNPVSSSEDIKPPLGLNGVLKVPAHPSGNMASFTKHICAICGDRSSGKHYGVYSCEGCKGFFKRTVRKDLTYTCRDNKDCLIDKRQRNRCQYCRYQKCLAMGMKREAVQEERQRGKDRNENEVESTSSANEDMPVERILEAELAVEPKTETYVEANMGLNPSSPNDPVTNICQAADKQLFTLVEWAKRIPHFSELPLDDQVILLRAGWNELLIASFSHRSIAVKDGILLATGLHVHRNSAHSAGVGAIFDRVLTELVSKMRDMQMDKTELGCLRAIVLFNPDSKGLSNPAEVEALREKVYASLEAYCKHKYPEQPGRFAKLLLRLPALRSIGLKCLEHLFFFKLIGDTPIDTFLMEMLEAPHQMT
Description: as §1, §2, §3, §4, §5, §6

[1] = RXRγ, CV-1 cells, luciferase reporter, 36 h, read-out: Potency
[2] = RXRα, CV-1 cells, luciferase reporter, 36 h, read-out: Potency

SMILES | Emax at 10 µM (RARβ) | Emax at 10 µM (RXRγ; RXRγ) | EC50 (RXRγ; [1]) | EC50 (RARβ) | Emax at 10 µM (RXRα; RXRα) | EC50 (RXRα; [2]) | EC50 (RXRγ) | EC50 (RXRα) | Emax (RXRα; CV-1, read-out: Efficacy)
C=C(c1ccc(C(=O)O)cc1)c1cc2c(cc1Br)C(C)(C)CCC2(C)C [3-Bromo-TTNEB, 4-[1-(3-bromo-5,5,8,8-tetramethyl-5,6,7,8-tetrahydro-2-naphthyl)ethenyl]benzoic acid] | 18% |  |  |  |  |  | 52 nM | 64 nM | 88%
Cc1cc2c(cc1C(=O)c1ccc(C(=O)Nc3ccc(O)cc3)cc1)C(C)(C)CCC2(C)C [3-Methyl-TTNCHBP, 4-[(3,5,5,8,8-pentamethyl-5,6,7,8-tetrahydro-2-naphthyl)carbonyl]-N-(4-hydroxyphenyl)benzamide] | 7% | 128% | 300 nM | > 10000 nM | 113% | 1100 nM |  |  | 
C=C(c1ccc(C(=O)Nc2ccc(O)cc2)cc1)c1cc2c(cc1C)C(C)(C)CCC2(C)C [3-Methyl-TTNEHBP (63), 4-[1-(3,5,5,8,8-pentamethyl-5,6,7,8-tetrahydro-2-naphthyl)ethenyl]-N-(4-hydroxyphenyl)benzamide] | 25% | 163% | 48 nM | 1900 nM | 125% | 140 nM |  |  | 
CCCC(=C/C=C/C(C)=C/C(=O)O)/C=C/C1=C(C)CCCC1(C)C [Compound 74, 3-methyl-7-propyl-9-(2,6,6-trimethyl-1-cyclohexen-1-yl)-2E,4E,6Z,8E-nonatetranoic acid] | 50% | 85% | 12 nM | 38 nM | 78% | 11 nM |  |  | 
CC1=C(/C=C/C(=C\C=C\C(C)=C\C(=O)O)C(C)C)C(C)(C)CCC1 [Compound 75, 3-methyl-7-isopropyl-9-(2,6,6-trimethyl-1-cyclohexen-1-yl)-2E,4E,6Z,8E-nonatetranoic acid] | 58% | 106% | 11 nM | 180 nM | 100% | 21 nM |  |  | 

Second part, led by results:

Emax at 10 µM (RARβ) | Emax at 10 µM (RXRγ; RXRγ) | EC50 (RXRγ; [1]) | EC50 (RARβ) | Emax at 10 µM (RXRα; RXRα) | EC50 (RXRα; [2]) | SMILES | EC50 (RXRγ) | EC50 (RXRα) | Emax (RXRα; CV-1, read-out: Efficacy)
63% | 71% | 9 nM | 140 nM | 75% | 16 nM | CC1=C(/C=C/C(=C\C=C\C(C)=C\C(=O)O)C(C)(C)C)C(C)(C)CCC1 [Compound 77, 3-methyl-7-t-butyl-9-(2,6,6-trimethyl-1-cyclohexen-1-yl)-2E,4E,6Z,8E-nonatetranoic acid] |  |  | 
5% | 72% | 106 nM | > 10000 nM | 63% | 123 nM | CC1=C(C=CC2CCCCC2/C=C/C(C)=C/C(=O)O)C(C)(C)CCC1 (stereo not shown) [Compound 100, 3-methyl-5-(2-[2-(2,6,6-trimethylcyclohexen-1-yl)ethenyl]cyclohexyl)-2E,4E-pentadienoic acid] |  |  | 
5% | 85% | 7 nM | > 10000 nM | 75% | 5 nM | CC(/C=C/C1(c2cc3c(cc2C)C(C)(C)CCC3(C)C)CC1)=C\C(=O)O [Compound 104, (2E,4E)-3-methyl-5-[1-(3,5,5,8,8-pentamethyl-5,6,7,8-tetrahydro-2-naphthyl)cyclopropyl]penta-2,4-dienoic acid] |  |  | 
29% | 87% | 198 nM | 446 nM | 79% | 85 nM | CC1=C(/C=C/C2(C/C=C/C(C)=C/C(=O)O)CC2)C(C)(C)CCC1 [Compound 110] |  |  | 
55% | 97% | 24 nM | 75 nM | 90% | 24 nM | CC(/C=C/C=C(\c1ccc2c(c1)C(C)(C)CCC2(C)C)C(C)C)=C\C(=O)O [Compound 123, (2E,4E,6Z)-7-(5,5,8,8-tetramethyl-5,6,7,8-tetrahydro-2-naphthyl)-3,8-dimethyl-nona-2,4,6-trienoic acid] |  |  | 
40% | 115% | 10 nM | 180 nM | 108% | 11 nM | C/C(=C/C=C/C(C)=C/C(=O)O)c1cc2c(cc1C)C(C)(C)CCC2(C)C [Compound 128, (2E,4E,6Z)-7-(3,5,5,8,8-pentamethyl-5,6,7,8-tetrahydro-2-naphthyl)-3-methyl-octa-2,4,6-trienoic acid] |  |  | 
